Data set [1] addresses human estrogen receptor β receptor (hERβ) (Homo sapiens, UniProt Q92731). Nature of the data set: ERβ transactivation bioassay in recombinant CHO cells (rat oxytocin promoter, luciferase reporter). Type of data set: cell-based. Conditions: for ERβ/ERα ratio: ERβ agonistic selectivity over ERα, transactivation data; for EC50: transactivation of luciferase via hERβ in CHO cells, read-out: ERβ agonistic EC50; for ERβ eudismic ratio: ratio of the activities of the eutomer and the distomer on ERβ. The protocol: The estrogenic and antiestrogenic activity of compounds was determined in an in vitro bioassay with recombinant Chinese hamster ovary (CHO) cells stably co-transfected with the human estrogen receptor α (hERα) or β receptor (hERβ), the rat oxytocin promoter (RO) and the luciferase reporter gene (LUC). The estrogenic activity of a test compound to stimulate the transactivation of the enzyme luciferase mediated via the estrogen receptors hERα or hERβ is expressed in nM. The assay was performed as described by De Gooyer et al., Steroids 68 (2003), 21-30. Table 7. ERβ and ERα transactivation data
(In general: In a reporter assay the amount or activity of a reporter protein is the signal.)

A short description of data set [2]: metabolic stability in human hepatocytes. In kind it is in vitro ADME. Conditions: cryopreserved human hepatocytes in suspension, tetrahydronaphthalen-2-ol, 37°C, sampled 0-120 min, LC-MS/MS, read-out: Human hepatocyte T1/2. How it is done:
A number of compounds 9, 11 and 12 were tested on metabolic stability in human hepatocytes. The hepatic stability was compared to corresponding chroman compounds 25, 26 or 27 (see structures below).
Test compounds were diluted to 3 µM in incubation medium. Then 40 µl of the 3 µM test compounds was pipetted into a 96 well microtiter plate (flat bottom). Hepatocytes (stored at -140 °C) were thawed in a 37°C water bath. The cells were resuspended into pre-warmed thawing medium and were centrifuged for 5 minutes at 50g at room temperature. The supernatant was discarded and the remaining cell pellet was resuspended in warm incubation medium and diluted to 7.5 E5 cells/ml. Then 80 µl of the cell suspension was added to each well of the 96 well microtiter plate containing the test compounds. The resulting mixture was incubated at 37°C and was sampled at t=0, 5, 30, 60, and 120 min. The samples were analyzed by LC-MS/MS to determine the content of unchanged test compound. Based on the rate of reduction of the content of test compound over time, the half-live (T1/2) was calculated. Metabolic stability in human hepatocytes

Sequence of human estrogen receptor β receptor (hERβ) (Q92731 whole entry): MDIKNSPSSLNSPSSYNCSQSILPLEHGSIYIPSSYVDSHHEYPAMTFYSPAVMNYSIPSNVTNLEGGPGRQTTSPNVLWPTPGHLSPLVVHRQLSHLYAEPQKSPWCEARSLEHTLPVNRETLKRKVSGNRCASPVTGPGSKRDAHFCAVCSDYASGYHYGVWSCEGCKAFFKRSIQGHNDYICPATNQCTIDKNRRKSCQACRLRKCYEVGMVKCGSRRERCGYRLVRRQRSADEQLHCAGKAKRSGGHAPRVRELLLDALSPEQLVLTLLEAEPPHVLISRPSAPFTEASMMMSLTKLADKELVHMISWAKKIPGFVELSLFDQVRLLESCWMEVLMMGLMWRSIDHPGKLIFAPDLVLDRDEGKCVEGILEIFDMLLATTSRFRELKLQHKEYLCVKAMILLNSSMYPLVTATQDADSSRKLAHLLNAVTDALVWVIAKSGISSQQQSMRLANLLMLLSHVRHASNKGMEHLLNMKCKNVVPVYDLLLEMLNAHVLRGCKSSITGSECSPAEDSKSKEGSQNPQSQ

As a reminder, the EC50 is the concentration needed to bring the measured effect to its halfway point. For `CC1C(c2ccc(O)cc2)Cc2ccc(O)cc2C1Cc1ccccc1F` (racemic) [Compound 9a, 8-(2-fluorobenzyl)-6-(4-hydroxyphenyl)-7-methyl-5,6,7,8-tetrahydronaphthalen-2-ol], in data set [1], the ERβ/ERα ratio worked out at 193 and the EC50 was determined as 0.45 nM.

In the case of `CCC1C(c2ccc(O)cc2)Cc2ccc(O)cc2C1Cc1ccccc1F` (racemic) [Compound 9b, 8-(2-fluorobenzyl)-6-(4-hydroxyphenyl)-7-ethyl-5,6,7,8-tetrahydronaphthalen-2-ol], the half-life at 1 µM in data set [2] was 1.17 h. Also, in data set [1], the ERβ/ERα ratio was 77 and the EC50 was 0.35 nM.

As for `CCCC1C(c2ccc(O)cc2)Cc2ccc(O)cc2C1Cc1ccccc1F` (racemic) [Compound 9c, 8-(2-fluorobenzyl)-6-(4-hydroxyphenyl)-7-propyl-5,6,7,8-tetrahydronaphthalen-2-ol], in data set [1], the ERβ/ERα ratio is listed as 33 and the 50% effective concentration (EC50) was 0.4 nM.

In the case of `CC1C(c2ccc(O)cc2)Cc2ccc(O)cc2C1Cc1ccccc1` (racemic) [Compound 9d, 8-benzyl-6-(4-hydroxyphenyl)-7-methyl-5,6,7,8-tetrahydronaphthalen-2-ol], in data set [1], the ERβ/ERα ratio was found to be 51 and the EC50 amounted to 0.68 nM.

Take `CCC1C(c2ccc(O)cc2)Cc2ccc(O)cc2C1Cc1ccccc1` (racemic) [Compound 9e, 8-benzyl-7-ethyl-6-(4-hydroxyphenyl)-5,6,7,8-tetrahydronaphthalen-2-ol]: in data set [1], the ERβ/ERα ratio is recorded as 18 and the concentration giving a half-maximal response (EC50) came to 0.42 nM.

On to `CC1C(c2ccc(O)cc2)Cc2ccc(O)cc2C1Cc1cccc(F)c1` (racemic) [Compound 9f, 8-(3-fluorobenzyl)-6-(4-hydroxyphenyl)-7-methyl-5,6,7,8-tetrahydronaphthalen-2-ol], for which, in data set [1], the ERβ/ERα ratio is on record as greater than 33 and the concentration for a half-maximal effect (EC50) is 3 nM.

`CC1C(c2ccc(O)cc2)Cc2ccc(O)cc2C1Cc1ccc(F)cc1` (racemic) [Compound 9g, 8-(4-fluorobenzyl)-6-(4-hydroxyphenyl)-7-methyl-5,6,7,8-tetrahydronaphthalen-2-ol]: in data set [1], the ERβ/ERα ratio is on record as greater than 43 and the EC50 came to 2.3 nM.

On to `CC1C(c2ccc(O)cc2)Cc2ccc(O)cc2C1Cc1cc(F)ccc1F` (racemic) [Compound 9h, 8-(2,5-difluorobenzyl)-6-(4-hydroxyphenyl)-7-methyl-5,6,7,8-tetrahydronaphthalen-2-ol], for which, in data set [1], the ERβ/ERα ratio was greater than 167 and the half-maximal effective concentration (EC50) was determined as 0.6 nM.

Consider `CC1C(c2ccc(O)cc2)Cc2ccc(O)cc2C1Cc1c(F)cccc1F` (racemic) [Compound 9i, 8-(2,6-difluorobenzyl)-6-(4-hydroxyphenyl)-7-methyl-5,6,7,8-tetrahydronaphthalen-2-ol], for which, in data set [1], the ERβ/ERα ratio is greater than 102 and the EC50 was determined as 0.98 nM.

In the case of `CC1C(c2ccc(O)cc2)Cc2ccc(O)cc2C1Cc1ccccc1C#N` (racemic) [Compound 9j, 2-((7-hydroxy-3-(4-hydroxyphenyl)-2-methyl-1,2,3,4-tetrahydronaphthalen-1-yl)methyl)benzonitrile], the half-life at 1 µM in data set [2] turned out to be 0.623 h. In addition, in data set [1], the ERβ/ERα ratio was determined as 605 and the half-maximal effective concentration (EC50) amounted to 0.56 nM.

As for `CCC1C(c2ccc(O)cc2)Cc2ccc(O)cc2C1Cc1ccccc1C#N` (racemic) [Compound 9k, 2-((2-ethyl-7-hydroxy-3-(4-hydroxyphenyl)-1,2,3,4-tetrahydronaphthalen-1-yl)methyl)benzonitrile], in data set [1], the ERβ/ERα ratio is on record as greater than 204 and the concentration giving a half-maximal response (EC50) worked out at 0.49 nM.

As for `CC1C(c2ccc(O)cc2)Cc2ccc(O)cc2C1Cc1ccccc1Cl` (racemic) [Compound 9l, 8-(2-chlorobenzyl)-6-(4-hydroxyphenyl)-7-methyl-5,6,7,8-tetrahydronaphthalen-2-ol], in data set [1], the ERβ/ERα ratio is listed as 339 and the EC50 was determined as 0.33 nM.

Consider `CCC1C(c2ccc(O)cc2)Cc2ccc(O)cc2C1Cc1ccc(O)cc1` (racemic) [Compound 9m, 7-ethyl-8-(4-hydroxybenzyl)-6-(4-hydroxyphenyl)-5,6,7,8-tetrahydronaphthalen-2-ol], for which, in data set [1], the ERβ/ERα ratio came to 2 and the half-maximal effective concentration (EC50) amounted to 31 nM.

Turning to `CCC1C(c2ccc(O)cc2F)Cc2ccc(O)cc2C1Cc1ccccc1F` (racemic) [Compound 9o, 7-ethyl-6-(2-fluoro-4-hydroxyphenyl)-8-(2-fluorobenzyl)-5,6,7,8-tetrahydronaphthalen-2-ol], the half-life at 1 µM in data set [2] is 1.22 h. In addition, in data set [1], the ERβ/ERα ratio was determined as 42 and the half-maximal effective concentration (EC50) was 0.17 nM.

`CC1C(c2ccc(O)cc2F)Cc2ccc(O)cc2C1Cc1ccccc1F` (racemic) [Compound 9p, 6-(2-fluoro-4-hydroxyphenyl)-8-(2-fluorobenzyl)-7-methyl-5,6,7,8-tetrahydronaphthalen-2-ol]: the half-life at 1 µM in data set [2] is greater than 2 h. In data set [1], the ERβ/ERα ratio is given as greater than 333 and the EC50 was determined as 0.3 nM.

Consider `Cc1cc(C2Cc3ccc(O)cc3C(Cc3ccccc3F)C2C)ccc1O` (racemic) [Compound 9r, 8-(2-fluorobenzyl)-6-(4-hydroxy-3-methylphenyl)-7-methyl-5,6,7,8-tetrahydronaphthalen-2-ol], for which, in data set [2], the half-life at 1 µM amounted to 0.965 h. In data set [1], the ERβ/ERα ratio is on record as greater than 83 and the EC50 is 1.2 nM.

In the case of `CC1C(c2ccc(O)cc2)Cc2ccc(O)c(F)c2C1Cc1ccccc1F` (racemic) [Compound 9s, 1-fluoro-8-(2-fluorobenzyl)-5,6,7,8-tetrahydro-6-(4-hydroxyphenyl)-7-methylnaphthalen-2-ol], in data set [2], the half-life at 1 µM came to 1.61 h. Moreover, in data set [1], the ERβ/ERα ratio is listed as greater than 21 and the EC50 is 4.7 nM.

As to `CCC1C(c2ccc(O)cc2)Cc2ccc(O)cc2C1Cc1ccccc1C` (racemic) [Compound 9v, 7-ethyl-6-(4-hydroxyphenyl)-8-(2-methylbenzyl)-5,6,7,8-tetrahydronaphthalen-2-ol], the half-life at 1 µM in data set [2] amounted to 1.16 h. Moreover, in data set [1], the ERβ/ERα ratio was greater than 63 and the concentration giving a half-maximal response (EC50) was 1.6 nM.

`CCC1C(c2ccc(O)cc2)Cc2ccc(O)cc2C1Cc1ccc(F)cc1` (racemic) [Compound 9w, 7-ethyl-8-(4-fluorobenzyl)-6-(4-hydroxyphenyl)-5,6,7,8-tetrahydronaphthalen-2-ol]: in data set [1], the ERβ/ERα ratio was 12 and the EC50 turned out to be 0.91 nM.

Turning to `CC1C(c2ccc(O)cc2)Cc2ccc(O)c(F)c2C1Cc1c(F)cccc1F` (racemic) [Compound 9y, 8-(2,6-difluorobenzyl)-1-fluoro-5,6,7,8-tetrahydro-6-(4-hydroxyphenyl)-7-methyl-naphthalen-2-ol], the half-life at 1 µM in data set [2] turned out to be 1.83 h. For the same molecule, in data set [1], the ERβ/ERα ratio is listed as greater than 8 and the half-maximal effective concentration (EC50) was found to be 12 nM.

Turning to `C[C@H]1[C@@H](c2ccc(O)cc2)Cc2ccc(O)cc2[C@H]1Cc1c(F)cccc1F` (single isomer, unassigned) [Compound 11i], in data set [1], the ERβ/ERα ratio is listed as greater than 213, the ERβ eudismic ratio is on record as greater than 212 and the EC50 was 0.47 nM.

`C[C@H]1[C@@H](c2ccc(O)cc2)Cc2ccc(O)cc2[C@H]1Cc1ccccc1C#N` (single isomer, unassigned) [Compound 11j]: the half-life at 1 µM in data set [2] came to 0.49 h. Besides, in data set [1], the ERβ/ERα ratio is listed as greater than 714, the ERβ eudismic ratio is listed as 143 and the EC50 worked out at 0.14 nM.

Consider `C[C@@H]1[C@H](c2ccc(O)cc2)Cc2ccc(O)cc2[C@@H]1Cc1ccccc1F` (single isomer, unassigned) [Compound 12a], for which the half-life at 1 µM in data set [2] turned out to be 1.11 h.

Regarding `C[C@@H]1[C@H](c2ccc(O)cc2)Cc2ccc(O)cc2[C@@H]1Cc1c(F)cccc1F` (single isomer, unassigned) [Compound 12i], the half-life at 1 µM in data set [2] came to 1.12 h.

In the case of `COc1ccccc1CC1c2cc(O)ccc2CC(c2ccc(O)cc2)C1C` (centres unmarked) [Compound 8n, 6-(4-hydroxyphenyl)-8-(2-methoxybenzyl)-7-methyl-5,6,7,8-tetrahydronaphthalen-2-ol], in data set [1], the ERβ/ERα ratio is given as greater than 40 and the concentration for a half-maximal effect (EC50) was determined as 2.5 nM.
